Reference: paper PMC9686568, “Novel Alligator Cathelicidin As-CATH8 Demonstrates Anti-Infective Activity against Clinically Relevant and Crocodylian Bacterial Pathogens” (Antibiotics, 2022)
Values after ≈ are worked out from the molar mass of the structure shown. Read-outs that look alike come from different tables or passages of the source. Residues, ends and D or L forms follow the SMILES beside them.

Key:
[1] = system: E. cloacae; type: cell-based, E. cloacae 218R1
Protocol: (§1) The following bacterial pathogens were used in this study: S. enterica subsp. enterica serovar Typhimurium ATCC 14028, E. coli O157:H7 [83], the clinical isolates S. aureus SAP0017 [84] and USA300 LAC [85], E. faecium #1-1 [85], A. baumannii Ab5075 [85] and E. cloacae 218R1 [85], as well as P. aeruginosa PAO1 [34], P. vulgaris HSC7200-T2 (Hancock Lab strain collection) and K. pneumoniae KPLN49 [85].
(§2) Overnight cultures were grown in LB at 37 °C with shaking at 250 rpm, except for E. faecium, which was grown in BHI medium.
(§3) The antimicrobial activity of the crocCATHs was evaluated with the broth microdilution method as described previously. MIC was defined as the first peptide or antibiotic concentration without visible bacterial growth. Reported values are the statistical mode of at least three independent experiments.

[2] = system: S. aureus; assay: MIC, broth microdilution in MHB; type: cell-based; conditions: first concentration without visible growth, mode of at least three independent experiments
Protocol: as §1, §2, §3

[3] = system: K. pneumoniae; assay: MIC, broth microdilution in MHB; type: cell-based, K. pneumoniae KPLN49; conditions: first concentration without visible growth, mode of at least three independent experiments
Protocol: as §1, §2, §3

[4] = system: A. baumannii; assay: MIC, broth microdilution in MHB; type: cell-based, A. baumannii Ab5075; conditions: first concentration without visible growth, mode of at least three independent experiments
Protocol: as §1, §2, §3

[5] = system: P. aeruginosa; assay: MIC, broth microdilution in MHB; type: cell-based, P. aeruginosa PAO1; conditions: first concentration without visible growth, mode of at least three independent experiments
Protocol: as §1, §2, §3

[6] = system: E. faecium; assay: MIC, broth microdilution in MHB; type: cell-based, E. faecium #1-1; conditions: first concentration without visible growth, mode of at least three independent experiments
Protocol: as §1, §2, §3

[7] = system: E. coli; type: cell-based, E. coli O157:H7; conditions: microdilution in MHB, first concentration without visible growth, mode of at least three independent experiments
Protocol: as §1, §2, §3

[8] = system: S. Typhimurium; type: cell-based, S. enterica subsp. enterica serovar Typhimurium ATCC 14028
Protocol: as §1, §2, §3

[9] = system: P. vulgaris; type: cell-based, P. vulgaris HSC7200-T2; conditions: microdilution in MHB, first concentration without visible growth, mode of at least three independent experiments
Protocol: as §1, §2, §3

[10] = system: P. aeruginosa biofilm; type: cell-based, P. aeruginosa PAO1
Protocol: (§4) Bacterial biofilm inhibition assays were performed using a microtiter assay as described by Haney et al.. For E. cloacae, E. coli, P. aeruginosa and S. Typhimurium, assays were performed using BM2 minimal medium (62 mM potassium phosphate, 7 mM ammonium sulfate, 0.5 mM magnesium sulfate, pH 7.0) supplemented with 0.4% glucose (w/v). Antibiofilm activity against A. baumannii and S. aureus SAP0017 was evaluated in 10% TSB (v/v) media supplemented with 0.1% glucose (w/v), whereas 10% THB (v/v) medium was employed for P. vulgaris.
(§5) Data from at least three independent experiments were analyzed as the percentage of biofilm mass compared to the untreated control. After crystal violet staining, MBIC95 was then calculated for each peptide, defined as the minimal peptide concentration capable of inhibiting mean biofilm growth by at least 95% compared to the untreated control.

[11] = system: E. coli biofilm; type: cell-based, E. coli O157:H7; conditions: BM2 minimal medium + 0.4% glucose, crystal violet, at least 95% inhibition of mean biofilm growth, at least three independent experiments
Protocol: as §4, §5

[12] = system: human bronchial epithelial (HBE) cells; assay: LDH release cytotoxicity assay; type: cell-based; conditions: HBE cells (16HBE14o-); at the highest concentrations tested (5 and 10 μM); relative to Triton X-100 control
Protocol: Immortalized human bronchial epithelial (HBE) cells (16HBE14o-) were used for in vitro cytotoxicity experiments as described elsewhere.
(§6) Peptide-induced cytotoxicity was assessed by measuring the extracellular activity of the LDH enzyme using the Cytotoxicity Detection Kit (MilliporeSigma, Burlington, MA, USA) as previously described. The percentage of LDH release relative to the untreated (negative) and Triton X-100 (positive, 100% cytotoxicity) control was assessed for at least three biological replicates and recorded as percent cytotoxicity.

[13] = system: peripheral blood mononuclear cells (PBMCs); assay: LDH release cytotoxicity assay; type: cell-based; conditions: human PBMCs; at the highest concentrations tested (5 and 10 μM); relative to Triton X-100 control
Protocol: Human PBMCs were isolated from human blood following the ethics protocols of the University of British Columbia, Canada. Consent was obtained from healthy volunteers before blood donation. Isolation and treatment of unstimulated PBMC was performed as previously described.
as §6

[14] = subcutaneous, 15 mg/kg, peptide alone, uninfected animals
From the text: The antibacterial capacities of As-CATH8 and Gg-CATH5 were further evaluated in the murine skin infection/abscess model. Mice were inoculated with clinical isolates of S. aureus and A. baumannii, two frequent causes of human skin infections. […] Therefore, the peptides were considered non-toxic at the doses used.

Compound | MIC [1] [µM] | MIC [2] [µM] | MIC [3] [µM] | MIC [4] [µM] | MIC [5] [µM] | MIC [6] [µM] | MIC [7] [µM] | MIC [8] [µM] | MIC [9] [µM] | MBIC95 [10] [µg/mL] | MBIC95 [11] [µM] | MIC ([8]; S. Typhimurium, microdilution in MHB, value in brackets of Table S4) [µg/mL] | Cytotoxicity (LDH release) [12] | Cytotoxicity (LDH release) [13] | Tissue damage or peptide precipitation at the site of injection [14]
CC(C)C[C@H](NC(=O)[C@H](C)NC(=O)[C@@H](NC(=O)[C@H](CC(N)=O)NC(=O)[C@H](CCCNC(=N)N)NC(=O)CNC(=O)[C@@H](NC(=O)[C@H](CCCCN)NC(=O)[C@H](CCCNC(=N)N)NC(=O)[C@H](Cc1c[nH]c2ccccc12)NC(=O)[C@H](CC(N)=O)NC(=O)[C@@H](NC(=O)[C@H](CCCNC(=N)N)NC(=O)[C@@H](N)CCCCN)C(C)C)C(C)C)[C@@H](C)O)C(=O)NCC(=O)N[C@@H](C)C(=O)N[C@@H](CO)C(=O)N[C@@H](Cc1ccc(O)cc1)C(=O)N[C@H](C(=O)N[C@@H](CC(C)C)C(=O)N[C@@H](CO)C(=O)N[C@@H](Cc1ccccc1)C(=O)N[C@@H](CC(C)C)C(=O)NCC(=O)O)C(C)C [As-CATH7] (H-KRVNWRKVGRNTALGASYVLSFLG-OH) | 0.5 (≈ 1.35 µg/mL) | 4 (≈ 10.8 µg/mL) | 1 (≈ 2.69 µg/mL) | 0.25 (≈ 0.673 µg/mL) | 4 (≈ 10.8 µg/mL) | >64 | 2 (≈ 5.39 µg/mL) | 2 | >64 | > 172 | 32 |  |  |  | 
CC[C@H](C)[C@H](NC(=O)[C@H](Cc1ccc(O)cc1)NC(=O)[C@@H]1CCCN1C(=O)[C@H](CC(C)C)NC(=O)[C@H](CC(C)C)NC(=O)[C@H](CCCCN)NC(=O)[C@H](CC(C)C)NC(=O)[C@H](C)NC(=O)[C@@H](NC(=O)[C@H](CCCNC(=N)N)NC(=O)CNC(=O)[C@@H](NC(=O)[C@H](CCCCN)NC(=O)[C@H](C)NC(=O)[C@H](Cc1c[nH]c2ccccc12)NC(=O)[C@H](CC(N)=O)NC(=O)[C@@H](NC(=O)[C@H](CCCNC(=N)N)NC(=O)[C@@H](N)CCCCN)C(C)C)C(C)C)[C@@H](C)O)C(=O)N[C@@H](Cc1ccccc1)C(=O)NCC(=O)O [As-CATH8] (H-KRVNWAKVGRTALKLLPYIFG-OH) | 0.5 (≈ 1.22 µg/mL) | 0.5 (≈ 1.22 µg/mL) | 0.5 (≈ 1.22 µg/mL) | 0.25 (≈ 0.608 µg/mL) | 1 (≈ 2.43 µg/mL) | >64 | 1 (≈ 2.43 µg/mL) | 1 | 4 (≈ 9.72 µg/mL) |  | 1 |  |  |  | 
CC[C@H](C)[C@H](NC(=O)[C@H](C)NC(=O)CNC(=O)[C@H](CC(N)=O)NC(=O)[C@H](CC(C)C)NC(=O)[C@@H](NC(=O)[C@H](CCCCN)NC(=O)[C@H](CCCCN)NC(=O)[C@H](Cc1c[nH]c2ccccc12)NC(=O)[C@H](Cc1c[nH]c2ccccc12)NC(=O)[C@H](CCCCN)NC(=O)[C@H](CCCNC(=N)N)NC(=O)[C@H](CCCNC(=N)N)NC(=O)[C@@H](N)[C@@H](C)O)C(C)C)C(=O)N[C@@H](CCCCN)C(=O)N[C@H](C(=O)N[C@@H](C)C(=O)N1CCC[C@H]1C(=O)N[C@@H](Cc1ccc(O)cc1)C(=O)N[C@H](C(=O)N[C@@H](CC(C)C)C(=O)N[C@@H](CC(=O)O)C(=O)O)[C@@H](C)CC)[C@@H](C)CC [Gg-CATH5] (H-TRRKWWKKVLNGAIKIAPYILD-OH) |  | 1 (≈ 2.67 µg/mL) | 0.5 (≈ 1.34 µg/mL) | 0.5 (≈ 1.34 µg/mL) | 1 (≈ 2.67 µg/mL) | >64 | 4 (≈ 10.7 µg/mL) |  | 8 (≈ 21.4 µg/mL) |  | 32 |  |  |  | 
CSCC[C@H](NC(=O)[C@@H](NC(=O)[C@H](Cc1ccc(O)cc1)NC(=O)[C@H](CO)NC(=O)[C@H](C)NC(=O)CNC(=O)[C@H](CC(C)C)NC(=O)CNC(=O)[C@@H](NC(=O)[C@H](CCCCN)NC(=O)[C@H](CCCNC(=N)N)NC(=O)[C@H](Cc1c[nH]c2ccccc12)NC(=O)[C@H](CC(N)=O)NC(=O)[C@@H](NC(=O)[C@H](CCCNC(=N)N)NC(=O)[C@@H](N)CCCCN)C(C)C)C(C)C)C(C)C)C(=O)N[C@@H](CO)C(=O)N[C@@H](Cc1c[nH]c2ccccc12)C(=O)N[C@@H](CC(C)C)C(=O)NCC(=O)O [Gg-CATH7] (H-KRVNWRKVGLGASYVMSWLG-OH) | 2 (≈ 4.62 µg/mL) |  |  |  |  |  |  | 4 |  | > 148 |  |  |  |  | 
CC[C@H](C)[C@H](NC(=O)[C@H](CCCCN)NC(=O)[C@H](CCC(=O)O)NC(=O)[C@H](CCCCN)NC(=O)[C@H](CO)NC(=O)[C@H](CCCCN)NC(=O)[C@H](CCCNC(=N)N)NC(=O)[C@H](Cc1ccccc1)NC(=O)[C@H](Cc1ccccc1)NC(=O)[C@H](CC(=O)O)NC(=O)CNC(=O)[C@H](CC(C)C)NC(=O)[C@@H](N)CC(C)C)C(=O)NCC(=O)N[C@@H](CCCCN)C(=O)N[C@@H](CCC(=O)O)C(=O)N[C@@H](Cc1ccccc1)C(=O)N[C@@H](CCCCN)C(=O)N[C@@H](CCCNC(=N)N)C(=O)N[C@H](C(=O)N[C@H](C(=O)N[C@@H](CCC(N)=O)C(=O)N[C@@H](CCCNC(=N)N)C(=O)N[C@H](C(=O)N[C@@H](CCCCN)C(=O)N[C@@H](CC(=O)O)C(=O)N[C@@H](Cc1ccccc1)C(=O)N[C@@H](CC(C)C)C(=O)N[C@@H](CCCNC(=N)N)C(=O)N[C@@H](CC(N)=O)C(=O)N[C@@H](CC(C)C)C(=O)N[C@H](C(=O)N1CCC[C@H]1C(=O)N[C@@H](CCCNC(=N)N)C(=O)N[C@H](C(=O)N[C@@H](CCC(=O)O)C(=O)N[C@@H](CO)C(=O)O)[C@@H](C)O)C(C)C)[C@@H](C)CC)C(C)C)[C@@H](C)CC [LL-37] |  |  |  |  |  |  |  |  |  |  |  | 72 | moderately cytotoxic | moderately cytotoxic | no evidence of tissue damage or peptide precipitation
VRLIVAVRIWRR-NH2 [IDR-1018, immunomodulatory peptide used as control] |  |  |  |  |  |  |  |  |  |  |  |  | low cytotoxicity | low cytotoxicity | 
